Laboratory results from US8877748B2, “Heterocyclic fused anthraquinone derivatives, manufacturing method and pharmaceutical composition using thereof” (National Defense Medical Center, priority 2012, dated 2014).

Columns and labels:
Format in all cases: cell-based, human
[1] = system: CAKI-1; test: NCI one-dose screening, renal cancer CAKI-1; conditions: 10 μM
[2] = system: HT29; test: NCI one-dose screening, colon cancer HT29; conditions: 10 μM
[3] = system: SK-MEL-5; test: NCI one-dose screening, melanoma SK-MEL-5; conditions: 10 μM
[4] = system: HCT-15; test: NCI one-dose screening, colon cancer HCT-15; conditions: 10 μM
[5] = system: A549/ATCC; test: NCI one-dose screening, non-small cell lung cancer A549/ATCC; conditions: 10 μM
[6] = system: MDA, -MB-435; test: NCI one-dose screening, breast cancer MDA, -MB-435; conditions: 10 μM; listed under Melanoma
[7] = system: SF-268; test: NCI one-dose screening, CNS cancer SF-268; conditions: 10 μM
[8] = system: OVCAR-4; test: NCI one-dose screening, ovarian cancer OVCAR-4; conditions: 10 μM
[9] = system: 786-O; test: NCI one-dose screening, renal cancer 786-O; conditions: 10 μM
[10] = system: HCT-116; test: NCI one-dose screening, colon cancer HCT-116; conditions: 10 μM
[11] = system: OVCAR-5; test: NCI one-dose screening, ovarian cancer OVCAR-5; conditions: 10 μM
[12] = system: OVCAR-8; test: NCI one-dose screening, ovarian cancer OVCAR-8; conditions: 10 μM
[13] = system: HOP-62; test: NCI one-dose screening, non-small cell lung cancer HOP-62; conditions: 10 μM
[14] = system: OVCAR-3; test: NCI one-dose screening, ovarian cancer OVCAR-3; conditions: 10 μM
[15] = system: RXF, 393; test: NCI one-dose screening, renal cancer RXF, 393; conditions: 10 μM
[16] = system: HCC-2998; test: NCI one-dose screening, colon cancer HCC-2998; conditions: 10 μM
[17] = system: NCI-H460; test: NCI one-dose screening, non-small cell lung cancer NCI-H460; conditions: 10 μM
[18] = system: PRMI-8226 cell line; test: NCI one-dose screening, leukemia PRMI-8226; conditions: 10 μM
[19] = system: MALME-3M; test: NCI one-dose screening, melanoma MALME-3M; conditions: 10 μM
[20] = system: SF-539; test: NCI one-dose screening, CNS cancer SF-539; conditions: 10 μM
[21] = system: PC-3 prostate cancer cell line; test: SRB assay cell viability, PC-3 prostate cancer cell line; conditions: Homo sapiens, PC-3 prostate cancer cell line, Table II prints no unit, μM printed, read-out: SRB assay: 50% inhibition of cancer cell proliferation of sample concentration (IC50) of PC-3 prostate cancer cell line
[22] = system: NCI-H226; test: NCI one-dose screening, non-small cell lung cancer NCI-H226; conditions: 10 μM
[23] = system: MOLT-4; test: NCI one-dose screening, leukemia MOLT-4; conditions: 10 μM
[24] = system: SF-295; test: NCI one-dose screening, CNS cancer SF-295; conditions: 10 μM
[25] = system: SNB-75; test: NCI one-dose screening, CNS cancer SNB-75; conditions: 10 μM
[26] = system: SNB-19; test: NCI one-dose screening, CNS cancer SNB-19; conditions: 10 μM
[27] = system: M14; test: NCI one-dose screening, melanoma M14; conditions: 10 μM
[28] = system: K562cell line; test: NCI one-dose screening, leukemia K562; conditions: 10 μM
[29] = system: NCl/ADR-RES; test: NCI one-dose screening, breast cancer NCl/ADR-RES; conditions: 10 μM; listed under Ovarian cancer
[30] = system: SR; test: NCI one-dose screening, leukemia SR; conditions: 10 μM
[31] = system: COLO 205; test: NCI one-dose screening, colon cancer COLO 205; conditions: 10 μM
[32] = system: UACC-257; test: NCI one-dose screening, melanoma UACC-257; conditions: 10 μM
[33] = system: SN12C; test: NCI one-dose screening, renal cancer SN12C; conditions: 10 μM
[34] = system: EKVX; test: NCI one-dose screening, non-small cell lung cancer EKVX; conditions: 10 μM
[35] = system: IGROV1; test: NCI one-dose screening, ovarian cancer IGROV1; conditions: 10 μM
[36] = system: U251; test: NCI one-dose screening, CNS cancer U251; conditions: 10 μM
[37] = system: KM12; test: NCI one-dose screening, colon cancer KM12; conditions: 10 μM
[38] = system: HL-60, TB; test: NCI one-dose screening, leukemia HL-60, TB; conditions: 10 μM
[39] = system: SK-MEL-2; test: NCI one-dose screening, melanoma SK-MEL-2; conditions: 10 μM
[40] = system: TK-10; test: NCI one-dose screening, renal cancer TK-10; conditions: 10 μM
[41] = system: UACC-62; test: NCI one-dose screening, melanoma UACC-62; conditions: 10 μM
[42] = system: LOX IMVI; test: NCI one-dose screening, melanoma LOX IMVI; conditions: 10 μM
[43] = system: SK-MEL-28; test: NCI one-dose screening, melanoma SK-MEL-28; conditions: 10 μM
[44] = system: NCI-H322M; test: NCI one-dose screening, non-small cell lung cancer NCI-H322M; conditions: 10 μM; Non-small cell lung cancer
[45] = system: NCI-H23; test: NCI one-dose screening, non-small cell lung cancer NCI-H23; conditions: 10 μM
[46] = system: ACHN; test: NCI one-dose screening, renal cancer ACHN; conditions: 10 μM
[47] = system: CCRF-CEM; test: NCI screening platform one-dose single concentration screening, leukemia CCRF-CEM; conditions: 10 μM
[48] = system: NCI-H522; test: NCI one-dose screening, non-small cell lung cancer NCI-H522; conditions: 10 μM

SMILES: Cc1cccc(C)c1Sc1cc2c(c3nsnc13)C(=O)c1ccccc1C2=O [C55, 4-(2,6-dimethylphenylthio)anthra[2,1-c] [1,2,5]thiadiazol-6,11-dione]
- Growth Percent CAKI-1 [1]: 61.03%
- Growth Percent HT29 [2]: 97.73%
- Growth Percent SK-MEL-5 [3]: 70.23%
- Growth Percent HCT-15 [4]: 47.54%
- Growth Percent A549/ATCC [5]: 90.16%
- Growth Percent MDA-MB-435 [6]: 96.77%
- Growth Percent SF-268 [7]: 79.48%
- Growth Percent OVCAR-4 [8]: 4.00%
- Growth Percent 786-0 [9]: 115.19%
- Growth Percent HCT-116 [10]: 64.99%
- Growth Percent OVCAR-5 [11]: 113.96%
- Growth Percent OVCAR-8 [12]: 58.98%
- Growth Percent HOP-62 [13]: 90.01%
- Growth Percent OVCAR-3 [14]: 1.00%
- Growth Percent RXF 393 [15]: 76.16%
- Growth Percent HCC-2998 [16]: 100.96%
- Growth Percent NCI-H460 [17]: 87.37%
- Growth Percent RPMI-8226 [18]: 55.63%
- Growth Percent MALME-3M [19]: 73.72%
- Growth Percent SF-539 [20]: 84.51%
- IC50 [21]: 6.74 µM
- Growth Percent NCI-H226 [22]: 78.31%
- Growth Percent MOLT-4 [23]: 32.64%
- Growth Percent SF-295 [24]: 91.11%
- Growth Percent SNB-75 [25]: 69.38%
- Growth Percent SNB-19 [26]: 94.75%
- Growth Percent M14 [27]: 121.55%
- Growth Percent K562 [28]: 43.14%
- Growth Percent NCI/ADR-RES [29]: 59.68%
- Growth Percent SR [30]: 35.52%
- Growth Percent COLO 205 [31]: 98.76%
- Growth Percent UACC-257 [32]: 86.57%
- Growth Percent SN12C [33]: 67.67%
- Growth Percent EKVX [34]: 82.44%
- Growth Percent IGROV1 [35]: 66.38%
- Growth Percent U251 [36]: 53.94%
- Growth Percent KM12 [37]: 95.96%
- Growth Percent HL-60(TB) [38]: 47.83%
- Growth Percent SK-MEL-2 [39]: 67.54%
- Growth Percent TK-10 [40]: 119.41%
- Growth Percent UACC-62 [41]: 91.72%
- Growth Percent LOX IMVI [42]: 44.61%
- Growth Percent SK-MEL-28 [43]: 89.33%
- Growth Percent NCI-H322M [44]: 83.83%
- Growth Percent NCI-H23 [45]: 67.37%
- Growth Percent ACHN [46]: 83.18%
- Growth Percent CCRF-CEM [47]: 34.84%
- Growth Percent NCI-H522 [48]: 61.39%

SMILES: CCSc1cc2c(c3nsnc13)C(=O)c1ccccc1C2=O [C16, 4-(ethylthio)anthra[2,1-c][1,2,5] thiadiazol-6,11-dione]
- Growth Percent CAKI-1 [1]: −1.76%
- Growth Percent HT29 [2]: 77.39%
- Growth Percent SK-MEL-5 [3]: −94.86%
- Growth Percent HCT-15 [4]: 2.65%
- Growth Percent A549/ATCC [5]: 20.39%
- Growth Percent MDA-MB-435 [6]: −61.08%
- Growth Percent SF-268 [7]: −54.89%
- Growth Percent OVCAR-4 [8]: −100.00%
- Growth Percent 786-0 [9]: 80.27%
- Growth Percent HCT-116 [10]: −82.82%
- Growth Percent OVCAR-5 [11]: 115.03%
- Growth Percent OVCAR-8 [12]: −79.84%
- Growth Percent HOP-62 [13]: 2.44%
- Growth Percent OVCAR-3 [14]: −76.39%
- Growth Percent RXF 393 [15]: −62.42%
- Growth Percent HCC-2998 [16]: 90.47%
- Growth Percent NCI-H460 [17]: 27.92%
- Growth Percent RPMI-8226 [18]: −35.20%
- Growth Percent MALME-3M [19]: −58.68%
- Growth Percent SF-539 [20]: −22.78%
- IC50 [21]: 5.39 µM
- Growth Percent NCI-H226 [22]: 53.41%
- Growth Percent MOLT-4 [23]: −50.44%
- Growth Percent SF-295 [24]: 79.94%
- Growth Percent SNB-75 [25]: 33.65%
- Growth Percent SNB-19 [26]: 83.19%
- Growth Percent M14 [27]: 47.15%
- Growth Percent K562 [28]: −44.64%
- Growth Percent NCI/ADR-RES [29]: −37.28%
- Growth Percent SR [30]: −54.27%
- Growth Percent COLO 205 [31]: 97.05%
- Growth Percent UACC-257 [32]: −86.35%
- Growth Percent SN12C [33]: −61.79%
- Growth Percent EKVX [34]: 56.13%
- Growth Percent IGROV1 [35]: −54.45%
- Growth Percent U251 [36]: −73.58%
- Growth Percent KM12 [37]: 69.33%
- Growth Percent HL-60(TB) [38]: −45.01%
- Growth Percent SK-MEL-2 [39]: −69.35%
- Growth Percent TK-10 [40]: 103.17%
- Growth Percent UACC-62 [41]: −38.24%
- Growth Percent LOX IMVI [42]: −91.42%
- Growth Percent SK-MEL-28 [43]: −41.99%
- Growth Percent NCI-H322M [44]: 89.71%
- Growth Percent NCI-H23 [45]: −25.43%
- Growth Percent ACHN [46]: −44.97%
- Growth Percent CCRF-CEM [47]: −35.53%
- Growth Percent NCI-H522 [48]: −88.01%
